Measured values taken from patent publication US20260347338A1, “PYRIMIDINE/PYRIDINE DERIVATIVES OR SALTS THEREOF AND PHARMACEUTICAL COMPOSITIONS COMPRISING THE SAME” (YUHAN CORPORATION, priority 2023, published 2026).
pIC50: −log10 of the molar value. Counter-ions that a name gives are not always drawn.

target: T1, human recombinant HPK1 (Homo sapiens, UniProt Q92918); test: Inhibitory activity against human recombinant HPK1 (TR-FRET); assay type: biochemical; details: ULight-p70S6K peptide, ATP at Km, room temperature, 1 hour, 0.32 to 1000 nM compound
T1 construct: purchased BPS Bioscience
T1 sequence (Q92918 whole entry): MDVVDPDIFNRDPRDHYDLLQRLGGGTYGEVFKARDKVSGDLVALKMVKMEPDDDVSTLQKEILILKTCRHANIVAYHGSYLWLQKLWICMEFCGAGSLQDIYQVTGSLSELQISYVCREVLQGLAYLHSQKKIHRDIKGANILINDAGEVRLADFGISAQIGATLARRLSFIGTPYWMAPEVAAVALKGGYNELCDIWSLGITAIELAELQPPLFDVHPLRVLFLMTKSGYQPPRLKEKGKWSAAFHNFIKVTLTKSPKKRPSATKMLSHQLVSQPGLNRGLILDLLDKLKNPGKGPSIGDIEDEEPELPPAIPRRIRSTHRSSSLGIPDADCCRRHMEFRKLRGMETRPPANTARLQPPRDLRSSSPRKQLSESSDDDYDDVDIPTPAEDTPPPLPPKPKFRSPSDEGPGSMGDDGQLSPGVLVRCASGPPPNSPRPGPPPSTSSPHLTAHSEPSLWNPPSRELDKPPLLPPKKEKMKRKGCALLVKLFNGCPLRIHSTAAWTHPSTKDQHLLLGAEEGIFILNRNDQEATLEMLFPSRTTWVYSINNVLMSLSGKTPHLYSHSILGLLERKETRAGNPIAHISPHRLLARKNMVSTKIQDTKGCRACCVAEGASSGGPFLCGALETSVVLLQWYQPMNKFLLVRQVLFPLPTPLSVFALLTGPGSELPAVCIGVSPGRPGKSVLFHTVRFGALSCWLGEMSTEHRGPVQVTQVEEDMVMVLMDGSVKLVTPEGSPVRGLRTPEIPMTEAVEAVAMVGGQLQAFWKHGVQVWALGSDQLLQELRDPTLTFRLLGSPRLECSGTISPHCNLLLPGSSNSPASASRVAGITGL
How it was run: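 Recombinant human HPK1 with ULight-p70S6K peptide and ATP at Km, 1 h at room temperature in HEPES pH 7.4 buffer with Mg2+, Mn2+, EGTA, DTT; compounds 0.32–1000 nM final. EDTA stop, Eu-anti-phosphopeptide TR-FRET read (665 nm); IC50 from % inhibition versus DMSO, binned A–D at 10, 50, 100 nM.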

pIC50, ≥ 8.00:
COc1cc(F)cc(F)c1-c1nccc(Nc2cc(N3C[C@@H](C)C[C@H](N)C3)c(-c3cnn(C(F)F)c3)cn2)n1 [Example 210, N-(4-((3S,5S)-3-amino-5-methylpiperidin-1-yl)-5-(1-(difluoromethyl)-1H-pyrazol-4-yl)pyridin-2-yl)-2-(2,4-difluoro-6-methoxyphenyl)pyrimidin-4-amine hydrochloride]
COc1cc(F)cc(F)c1-c1nccc(Nc2cc(N3CC[C@@H](C)[C@H](N)C3)c(-c3cnn(C(F)F)c3)cn2)n1 [Example 211, N-(4-((3S,4R)-3-amino-4-methylpiperidin-1-yl)-5-(1-(difluoromethyl)-1H-pyrazol-4-yl)pyridin-2-yl)-2-(2,4-difluoro-6-methoxyphenyl)pyrimidin-4-amine hydrochloride]
COc1cc(F)cc(F)c1-c1nccc(Nc2cc(N3CCC[C@](C)(N)C3)c(-c3cnn(C(F)F)c3)cn2)n1 [Example 212, (S)-N-(4-(3-amino-3-methylpiperidin-1-yl)-5-(1-(difluoromethyl)-1H-pyrazol-4-yl)pyridin-2-yl)-2-(2,4-difluoro-6-methoxyphenyl)pyrimidin-4-amine hydrochloride]
COc1cc(F)cc(F)c1-c1nccc(Nc2cc(N3CC[C@@H](O)[C@H](N)C3)c(-c3cnn(C(F)F)c3)cn2)n1 [Example 213, (3R,4R)-3-amino-1-(2-((2-(2,4-difluoro-6-methoxyphenyl)pyrimidin-4-yl)amino)-5-(1-(difluoromethyl)-1H-pyrazol-4-yl)pyridin-4-yl)piperidin-4-ol hydrochloride]
COc1cccc(F)c1-c1nccc(Nc2cc(N(C)C3CCC(O)CC3)c(-c3cnn(C(F)F)c3)cn2)n1 [Example 214, (1S,4S)-4-((5-(1-(difluoromethyl)-1H-pyrazol-4-yl)-2-((2-(2-fluoro-6-methoxyphenyl)pyrimidin-4-yl)amino)pyridin-4-yl)(methyl)amino)cyclohexan-1-ol]
COc1cc(F)cc(F)c1-c1nc(Nc2cc(N3CC[C@@H](C)[C@H](N)C3)c(-c3cnn(C(F)F)c3)cn2)ccc1N [Example 215, N^2-(4-((3S,4R)-3-amino-4-methylpiperidin-1-yl)-5-(1-(difluoromethyl)-1H-pyrazol-4-yl)pyridin-2-yl)-6-(2,4-difluoro-6-methoxyphenyl)pyridin-2,5-diamine hydrochloride]
COc1cc(F)cc(F)c1-c1nc(Nc2cc(N3CC[C@@H](F)[C@H](N)C3)c(-c3cnn(C(F)F)c3)cn2)ccc1N [Example 216, N^2-(4-((3R,4R)-3-amino-4-fluoropiperidin-1-yl)-5-(1-(difluoromethyl)-1H-pyrazol-4-yl)pyridin-2-yl)-6-(2,4-difluoro-6-methoxyphenyl)pyridin-2,5-diamine hydrochloride]
COc1cc(F)cc(F)c1-c1nccc(Nc2cc(N3CCC[C@H](O)C3)c(C#Cc3cnn(C(F)F)c3)cn2)n1 [Example 217, (S)-1-(2-((2-(2,4-difluoro-6-methoxyphenyl)pyrimidin-4-yl)amino)-5-((1-(difluoromethyl)-1H-pyrazol-4-yl)ethynyl)pyridin-4-yl)piperidin-3-ol]
COc1cc(F)cc(F)c1-c1nccc(Nc2cc(N3CCC[C@H](O)C3)c(C#Cc3cnn(C(F)(F)F)c3)cn2)n1 [Example 218, (S)-1-(2-((2-(2,4-difluoro-6-methoxyphenyl)pyrimidin-4-yl)amino)-5-((1-(trifluoromethyl)-1H-pyrazol-4-yl)ethynyl)pyridin-4-yl)piperidin-3-ol]
COc1cc(F)cc(F)c1-c1nccc(Nc2cc(N3CCC[C@H](O)C3)c(C#Cc3cnn(CC(F)F)c3)cn2)n1 [Example 219, (S)-1-(2-((2-(2,4-difluoro-6-methoxyphenyl)pyrimidin-4-yl)amino)-5-((1-(2,2-difluoroethyl)-1H-pyrazol-4-yl)ethynyl)pyridin-4-yl)piperidin-3-ol]
COc1cc(F)cc(F)c1-c1nccc(Nc2cc(N3CCC[C@H](O)C3)c(C#Cc3cnn(CC(F)(F)F)c3)cn2)n1 [Example 220, (S)-1-(2-((2-(2,4-difluoro-6-methoxyphenyl)pyrimidin-4-yl)amino)-5-((1-(2,2,2-trifluoroethyl)-1H-pyrazol-4-yl)ethynyl)pyridin-4-yl)piperidin-3-ol]
COc1cccc(F)c1-c1nc(Nc2cc(N3CCC[C@H](O)C3)c(C#Cc3cnn(CC(F)F)c3)cn2)ccc1[N+](=O)[O-] [Example 221, (3S)-1-(5-((1-(2,2-difluoroethyl)-1H-pyrazol-4-yl)ethynyl)-2-((6-(2-fluoro-6-methoxyphenyl)-5-nitropyridin-2-yl)amino)pyridin-4-yl)piperidin-3-ol]
COc1cccc(F)c1-c1nc(Nc2cc(N3CCC[C@H](O)C3)c(C#Cc3cnn(C(F)F)c3)cn2)ccc1[N+](=O)[O-] [Example 222, (3S)-1-(5-((1-(difluoromethyl)-1H-pyrazol-4-yl)ethynyl)-2-((6-(2-fluoro-6-methoxyphenyl)-5-nitropyridin-2-yl)amino)pyridin-4-yl)piperidin-3-ol]
COc1cc(F)cc(F)c1-c1nc(Nc2cc(N3CCC[C@H](O)C3)c(-c3cnn(CC(F)F)c3)cn2)ccc1[N+](=O)[O-] [Example 223, (3S)-1-(2-((6-(2,4-difluoro-6-methoxyphenyl)-5-nitropyridin-2-yl)amino)-5-(1-(2,2-difluoroethyl)-1H-pyrazol-4-yl)pyridin-4-yl)piperidin-3-ol]
COc1cc(F)cc(F)c1-c1nc(Nc2cc(N3CCC[C@H](O)C3)c(-c3cnn(C4CCOCC4)c3)cn2)ccc1[N+](=O)[O-] [Example 224, (3S)-1-(2-((6-(2,4-difluoro-6-methoxyphenyl)-5-nitropyridin-2-yl)amino)-5-(1-(tetrahydro-2H-pyran-4-yl)-1H-pyrazol-4-yl)pyridin-4-yl)piperidin-3-ol]
COc1cc(F)cc(F)c1-c1nc(Nc2cc(N3CCC[C@H](O)C3)c(C#CC3CCOCC3)cn2)ccc1[N+](=O)[O-] [Example 225, (3S)-1-(2-((6-(2,4-difluoro-6-methoxyphenyl)-5-nitropyridin-2-yl)amino)-5-((tetrahydro-2H-pyran-4-yl)ethynyl)pyridin-4-yl)piperidin-3-ol]
COc1cc(F)cc(F)c1-c1nc(Nc2cc(N3CCC[C@H](O)C3)c(-c3cnn(CC(F)F)c3)cn2)ccc1N [Example 226, (3S)-1-(2-((5-amino-6-(2,4-difluoro-6-methoxyphenyl)pyridin-2-yl)amino)-5-(1-(2,2-difluoroethyl)-1H-pyrazol-4-yl)pyridin-4-yl)piperidin-3-ol]
COc1cc(F)cc(F)c1-c1nc(Nc2cc(N3CCC[C@H](O)C3)c(-c3cnn(C4CCOCC4)c3)cn2)ccc1N [Example 227, (3S)-1-(2-((5-amino-6-(2,4-difluoro-6-methoxyphenyl)pyridin-2-yl)amino)-5-(1-(tetrahydro-2H-pyran-4-yl)-1H-pyrazol-4-yl)pyridin-4-yl)piperidin-3-ol]
